Assay results: ChEMBL document CHEMBL3271952, “Synthesis and pharmacological properties of the N-terminal decapeptide of the vasoactive intestinal peptide (VIP)” (J Med Chem, 1977)
Active and inactive are the calls of the source. The rule behind the calls is not given here. Peptide text beside a SMILES is read from it.

Assays:
Stomach = experiment: Vasodilatory activity in rat stomach smooth muscle assessed as muscle relaxation; assay type: functional, tissue-based
Cavia porcellus = organism: Cavia porcellus; experiment: Vasodilatory activity in guinea pig trachea assessed as muscle relaxation; assay type: functional, tissue-based
Canis familiaris = experiment: Vasodilatory activity in anesthetized dog assessed as effect on blood flow; assay type: functional, organism-based; details: Canis lupus familiaris

Row | Molecule | Activity (Stomach) | Activity (Cavia porcellus) | Activity (Canis familiaris)
1 | COC(=O)[C@H](Cc1ccc(O)cc1)NC(=O)[C@H](CC(N)=O)NC(=O)[C@H](CC(=O)O)NC(=O)[C@@H](NC(=O)[C@H](Cc1ccccc1)NC(=O)[C@@H](NC(=O)[C@H](C)NC(=O)[C@H](CC(=O)O)NC(=O)[C@H](CO)NC(=O)[C@@H](N)Cc1cnc[nH]1)C(C)C)[C@@H](C)O (H-HSDAVFTDNY-OMe) | Active | Active | 
2 | H-AVKKYLNSILN-NH2 | Active | Active | Active
3 | H-KQMAVKKYLNSILN-NH2 |  |  | Active
4 | H-RKQMAVKKYLNSILN-NH2 |  |  | inactive
